Assay results: patent publication US20260166128A1, “HUMAN AMYLIN ANALOG, AND DERIVATIVE THEREOF AND USE THEREOF” (priority 2022, published 2026)
Numbered stars: 1 amine (or outer) side, 2 acyl side, 3 side chain; on linkers, the order of the positions; unused ones are H or OH. Bridge positions count the residues as written; N and C are the ends. Square brackets hold non-standard residues; d marks the D form. Primed or numbered codes have the meaning given here. Side chains are listed from the residue outwards. Peptide text beside a SMILES is read from it. * marks the point of attachment. C20 diacid = O=C(O)CCCCCCCCCCCCCCCCCCC(=O)*; X1 = N[C@@H]1CCN([*:1])[C@@H]1C(=O)[*:2]; γGlu = O=C(O)[C@H](CCC(=O)[*:2])N[*:1]; C12 diacid = O=C(O)CCCCCCCCCCC(=O)*; HOOC(CH2)8CO = O=C(O)CCCCCCCCC(=O)*; Trx′ = not defined here

Experiment: Freeze-thaw stability of derivatives (freeze-thaw yield by liquid chromatography)
Assay type: physicochemical
Conditions: for Dissolution property: appearance after dissolution at 0.2 mg/ml in 20 mM phosphate buffer solution (PB) (pH 7.0); for Freeze storage property: appearance after overnight storage at −20° C. and thawing to room temperature, 0.2 mg/ml in 20 mM PB (pH 7.0); for Freeze storage yield: concentration of polypeptide after freezing and thawing / concentration before, by liquid chromatography, −20° C. overnight
Experimental: The freeze-dried powder of the polypeptide analog derivative prepared in Example 1 was mixed with a buffer solution according to a mass-volume ratio of 0.2 mg/ml, the polypeptide was dissolved with 20 mM phosphate buffer solution (PB) (pH 7.0), the sample was stored at −20° C. for overnight storage, and then the sample was taken out to be restored to room temperature for thawing. During the experiment, property changes of the polypeptide after dissolution and freezing and thawing were observed and recorded respectively, and concentrations of the polypeptide before and after the freezing and thawing were detected by the following liquid chromatography method: Materials and equipment: high-performance liquid chromatographic instrument (Agilent 1200), ultrapure water (18.2 MΩ self-manufactured ultrapure water), acetonitrile (HPLC grade), and trifluoroacetic acid (HPLC grade); and reversed-phase chromatographic column: […] A sample to be tested was centrifuged at 10,000 rpm and 4° C. for 3 minutes, and a supernatant was taken and added into a liquid-phase sample injection bottle. […] A freeze-thaw yield was calculated by the following formula: freeze-thaw yield=concentration of polypeptide after the freezing and thawing/concentration of polypeptide before the freezing and thawing.

| Compound | Dissolution property | Freeze storage property | Freeze storage yield |
| --- | --- | --- | --- |
| CC[C@H](C)[C@H](NC(=O)[C@@H]1CCCN1C(=O)[C@H](CCCCNC(=O)CC[C@H](NC(=O)CCCCCCCCCCCCCCCCCCC(=O)O)C(=O)O)NC(=O)[C@H](CC(C)C)NC(=O)[C@H](CC(N)=O)NC(=O)[C@H](CC(N)=O)NC(=O)[C@H](CO)NC(=O)[C@H](CO)NC(=O)[C@H](Cc1c[nH]cn1)NC(=O)[C@H](CCCNC(=N)N)NC(=O)[C@H](CC(C)C)NC(=O)[C@H](Cc1ccccc1)NC(=O)[C@H](CC(=O)O)NC(=O)[C@H](C)NC(=O)[C@H](CC(C)C)NC(=O)[C@H](CCCNC(=N)N)NC(=O)[C@H](CCC(N)=O)NC(=O)[C@@H](NC(=O)[C@H](C)NC(=O)[C@@H]1CSSC[C@H](NC(=O)[C@@H](N)CCCNC(=N)N)C(=O)N[C@@H](CC(N)=O)C(=O)N[C@@H]([C@@H](C)O)C(=O)N[C@@H](C)C(=O)N[C@@H]([C@@H](C)O)C(=O)N1)[C@@H](C)O)C(=O)N[C@@H](CC(C)C)C(=O)N1CCC[C@H]1C(=O)N1CCC[C@H]1C(=O)N[C@H](C(=O)N[C@@H](CC(N)=O)C(=O)N[C@H](C(=O)NCC(=O)N[C@@H](CO)C(=O)N[C@@H](CC(N)=O)C(=O)N[C@H](C(=O)N1CCC[C@H]1C(N)=O)[C@@H](C)O)C(C)C)[C@@H](C)O [PD042] (H-RCNTATCATQRLADFLRHSSNNLK([γGlu-C20 diacid])PILPPTNVGSNTP-NH2; disulfide 2-7 (inferred); N-terminus assumed) | Clear | Clear | 95.19% |
| CC[C@H](C)[C@H](NC(=O)[C@@H]1CCCN1C(=O)[C@H](CCCCNC(=O)CC[C@H](NC(=O)CCCCCCCCCCCCCCCCCCC(=O)O)C(=O)O)NC(=O)[C@H](CC(C)C)NC(=O)[C@H](CC(N)=O)NC(=O)[C@H](CC(N)=O)NC(=O)[C@H](CO)NC(=O)[C@H](CO)NC(=O)[C@H](Cc1c[nH]cn1)NC(=O)[C@H](CCCNC(=N)N)NC(=O)[C@H](CC(C)C)NC(=O)[C@H](Cc1ccccc1)NC(=O)[C@H](CC(=O)O)NC(=O)[C@H](C)NC(=O)[C@H](CC(C)C)NC(=O)[C@H](CCCNC(=N)N)NC(=O)[C@H](CCC(N)=O)NC(=O)[C@@H](NC(=O)[C@H](C)NC(=O)[C@@H]1CSSC[C@H](NC(=O)[C@@H](N)CCCNC(=N)N)C(=O)N[C@@H](CC(N)=O)C(=O)N[C@@H]([C@@H](C)O)C(=O)N[C@@H](C)C(=O)N[C@@H]([C@@H](C)O)C(=O)N1)[C@@H](C)O)C(=O)N[C@@H](CC(C)C)C(=O)N1CCC[C@H]1C(=O)N1CCC[C@H]1C(=O)N[C@H](C(=O)N[C@@H](CC(N)=O)C(=O)N[C@H](C(=O)NCC(=O)N[C@@H](CO)C(=O)N[C@@H](CC(N)=O)C(=O)N[C@H](C(=O)N1CCC[C@H]1C(N)=O)[C@@H](C)O)C(C)C)[C@@H](C)O [PD048] (H-RCNTATCATQRLADFLRHSSNNLK([γGlu-C20 diacid])PILPPTNVGSNTP-NH2; disulfide 2-7 (inferred); N-terminus assumed) | Clear | Clear | 102.16% |
| CC[C@H](C)[C@H](NC(=O)[C@@H]1CCCN1C(=O)[C@H](CCCCNC(=O)CC[C@H](NC(=O)CCCCCCCCCCCCCCCCCCC(=O)O)C(=O)O)NC(=O)[C@H](CC(C)C)NC(=O)[C@H](CC(N)=O)NC(=O)[C@H](CC(N)=O)NC(=O)[C@H](CO)NC(=O)[C@H](CO)NC(=O)[C@H](Cc1c[nH]cn1)NC(=O)[C@H](CCCNC(=N)N)NC(=O)[C@H](CC(C)C)NC(=O)[C@H](Cc1ccccc1)NC(=O)[C@H](CCC(=O)O)NC(=O)[C@H](C)NC(=O)[C@H](CC(C)C)NC(=O)[C@H](CCCNC(=N)N)NC(=O)[C@H](CCC(N)=O)NC(=O)[C@@H](NC(=O)[C@H](C)NC(=O)[C@@H]1CSSC[C@H](NC(=O)[C@@H](N)CCCNC(=N)N)C(=O)N[C@@H](CC(N)=O)C(=O)N[C@@H]([C@@H](C)O)C(=O)N[C@@H](C)C(=O)N[C@@H]([C@@H](C)O)C(=O)N1)[C@@H](C)O)C(=O)N[C@@H](CC(C)C)C(=O)N1CCC[C@H]1C(=O)N1CCC[C@H]1C(=O)N[C@H](C(=O)N[C@@H](CC(N)=O)C(=O)N[C@H](C(=O)NCC(=O)N[C@@H](CO)C(=O)N[C@@H](CC(N)=O)C(=O)N[C@H](C(=O)N1CC[C@@H](N)[C@H]1C(N)=O)[C@@H](C)O)C(C)C)[C@@H](C)O [PD061] (H-RCNTATCATQRLAEFLRHSSNNLK([γGlu-C20 diacid])PILPPTNVGSNT[X1]-NH2; disulfide 2-7; N-terminus assumed) | Clear | Clear | 100.32% |
| CC[C@H](C)[C@H](NC(=O)[C@@H]1CCCN1C(=O)[C@H](CCCCNC(=O)CC[C@H](NC(=O)CCCCCCCCCCCCCCCCCCC(=O)O)C(=O)O)NC(=O)[C@H](CC(C)C)NC(=O)[C@H](CC(N)=O)NC(=O)[C@H](CC(N)=O)NC(=O)[C@H](CO)NC(=O)[C@H](CO)NC(=O)[C@H](Cc1c[nH]cn1)NC(=O)[C@H](CCCNC(=N)N)NC(=O)[C@H](CC(C)C)NC(=O)[C@H](Cc1ccccc1)NC(=O)[C@H](CC(=O)O)NC(=O)[C@H](C)NC(=O)[C@H](CC(C)C)NC(=O)[C@H](CCCNC(=N)N)NC(=O)[C@H](CCC(N)=O)NC(=O)[C@@H](NC(=O)[C@H](C)NC(=O)[C@@H]1CSSC[C@H](NC(=O)[C@@H](N)CCCNC(=N)N)C(=O)N[C@@H](CC(N)=O)C(=O)N[C@@H]([C@@H](C)O)C(=O)N[C@@H](C)C(=O)N[C@@H]([C@@H](C)O)C(=O)N1)[C@@H](C)O)C(=O)N[C@@H](CC(C)C)C(=O)N1CCC[C@H]1C(=O)N1CCC[C@H]1C(=O)N[C@H](C(=O)N[C@@H](CC(N)=O)C(=O)N[C@H](C(=O)NCC(=O)N[C@@H](CO)C(=O)N[C@@H](CC(N)=O)C(=O)N[C@H](C(=O)N1CC[C@@H](N)[C@H]1C(N)=O)[C@@H](C)O)C(C)C)[C@@H](C)O [PD062] (H-RCNTATCATQRLADFLRHSSNNLK([γGlu-C20 diacid])PILPPTNVGSNT[X1]-NH2; disulfide 2-7; N-terminus assumed) | Clear | Clear | 102.63% |
| PD133: KCNTATCATQRLADFLRHSSNNLGPILPPTNVGSNT-trans-Hyp-NH2; N-terminal; Trx + C20 diacid ({C20 diacid-Trx′}-KCNTATCATQRLADFLRHSSNNLGPILPPTNVGSNT-{trans‑Hyp-NH2}; disulfide 2-7 (inferred); reading uncertain; also: printed as KCNTATCATQRLADFLRHSSNNLGPILPPTNVGSNT-trans-Hyp-NH2) | Clear | Clear | 98.24% |
| PD135: KCNTATCATQRLADFLRHSSNNLGPILPPTNVGSNT-trans-Hyp-NH2; N-terminal, 1K-ϵ; γGlu + C10 diacid ({HOOC(CH2)8CO-γGlu}-K([γGlu-HOOC(CH2)8CO])CNTATCATQRLADFLRHSSNNLGPILPPTNVGSNT-{trans‑Hyp-NH2}; disulfide 2-7 (inferred)) | Clear | Clear | 110.57% |
| PD136: KCNTATCATQRLADFLRHSSNNLGPILPPTNVGSNT-trans-Hyp-NH2; N-terminal, 1K-ϵ; γGlu + C12 diacid ({C12 diacid-γGlu}-K([γGlu-C12 diacid])CNTATCATQRLADFLRHSSNNLGPILPPTNVGSNT-{trans‑Hyp-NH2}; disulfide 2-7 (inferred)) | Clear | Clear | 108.07% |
